# According to patent US20240000872A1, “NOVEL BACTERIOPHAGE THAT LYSES ACINETOBACTER GENUS BACTERIA HAVING RESISTANCE TO ANTIBIOTICS” (priority 2020, published 2024):
# Tested on: Acinetobacter baumannii strains
# Assay: Antibiotic susceptibility test (CLSI disk diffusion test method, read per CLSI 2016)
# Format: cell-based
# Set-up: antibiotic susceptibility test value / susceptibility test value (number given before S/I/R) / antibiotic susceptibility value: unit not given here
# Procedure: (§1) Strain identification was performed using a kit such as AT 32 GN system (bioMérieux, Marcy l'Etoile, France). […] In Table 2 below, S, I, and R are the results obtained by evaluating susceptibility to the antibacterial agents, in which ‘S’ means susceptible, ‘I’ means intermediate, and ‘R’ means resistant.
# as §1, with “as ATB” for “as AT”, “system (bioMédrieux,” for “system (bioMérieux,”, “Table 6” for “Table 2”
# as §1, with “as ATB” for “as AT”, “Table 10” for “Table 2”, “susceptible, T” for “susceptible, ‘I’”
substance,measurement,setting,value
gentamicin,antibiotic susceptibility class,host strain YMC14/01/C29,R
same,antibiotic susceptibility test value,host strain YMC14/01/C29,16
same,antibiotic susceptibility class,host strain YMC14/01/IP122,R
same,antibiotic susceptibility test value,host strain YMC14/01/IP122,16
same,antibiotic susceptibility class,host strain YMC14/01/L8,R
same,antibiotic susceptibility test value,host strain YMC14/01/L8,16
same,antibiotic susceptibility class,host strain YMC14/01/P31,R
same,antibiotic susceptibility test value,host strain YMC14/01/P31,16
same,antibiotic susceptibility class,host strain YMC14/01/P117,R
same,antibiotic susceptibility test value,host strain YMC14/01/P117,16
same,antibiotic susceptibility class,host strain YMC14/01/P224,R
same,antibiotic susceptibility test value,host strain YMC14/01/P224,16
same,antibiotic susceptibility class,host strain YMC14/01/P727,R
same,antibiotic susceptibility test value,host strain YMC14/01/P727,16
same,antibiotic susceptibility class,host strain YMC14/01/P728,R
same,antibiotic susceptibility test value,host strain YMC14/01/P728,16
same,antibiotic susceptibility class,host strain YMC14/01/R130,R
same,antibiotic susceptibility test value,host strain YMC14/01/R130,16
same,antibiotic susceptibility class,host strain YMC14/01/R160,R
same,antibiotic susceptibility test value,host strain YMC14/01/R160,16
same,antibiotic susceptibility class,host strain YMC14/01/R198,R
same,antibiotic susceptibility test value,host strain YMC14/01/R198,16
same,antibiotic susceptibility class,host strain YMC14/01/R257,S
same,antibiotic susceptibility test value,host strain YMC14/01/R257,1
same,antibiotic susceptibility class,host strain YMC14/01/R270,R
same,antibiotic susceptibility test value,host strain YMC14/01/R270,16
same,antibiotic susceptibility class,host strain YMC14/01/R324,R
same,antibiotic susceptibility test value,host strain YMC14/01/R324,16
same,antibiotic susceptibility class,host strain YMC14/01/R443,R
same,antibiotic susceptibility test value,host strain YMC14/01/R443,16
same,antibiotic susceptibility class,host strain YMC14/01/R451,R
same,antibiotic susceptibility test value,host strain YMC14/01/R451,16
same,antibiotic susceptibility class,host strain YMC14/01/R560,S
same,antibiotic susceptibility test value,host strain YMC14/01/R560,2
same,antibiotic susceptibility class,host strain YMC14/01/R617,R
same,antibiotic susceptibility test value,host strain YMC14/01/R617,16
same,antibiotic susceptibility class,host strain YMC14/01/R671,R
same,antibiotic susceptibility test value,host strain YMC14/01/R671,16
same,antibiotic susceptibility class,host strain YMC14/01/R732,R
same,antibiotic susceptibility test value,host strain YMC14/01/R732,16
same,antibiotic susceptibility class,host strain YMC14/01/R767,R
same,antibiotic susceptibility test value,host strain YMC14/01/R767,16
same,antibiotic susceptibility class,host strain YMC14/01/R904,R
same,antibiotic susceptibility test value,host strain YMC14/01/R904,16
same,antibiotic susceptibility class,host strain YMC14/01/R905,R
same,antibiotic susceptibility test value,host strain YMC14/01/R905,16
same,antibiotic susceptibility class,host strain YMC14/01/R921,I
same,antibiotic susceptibility test value,host strain YMC14/01/R921,8
same,antibiotic susceptibility class,host strain YMC14/01/R941,R
same,antibiotic susceptibility test value,host strain YMC14/01/R941,16
same,antibiotic susceptibility class,host strain YMC14/01/R958,R
same,antibiotic susceptibility test value,host strain YMC14/01/R958,16
same,antibiotic susceptibility class,host strain YMC14/01/R1006,R
same,antibiotic susceptibility test value,host strain YMC14/01/R1006,16
same,antibiotic susceptibility class,host strain YMC14/01/R1199,R
same,antibiotic susceptibility test value,host strain YMC14/01/R1199,16
same,antibiotic susceptibility class,host strain YMC14/01/R1659,R
same,antibiotic susceptibility test value,host strain YMC14/01/R1659,16
same,antibiotic susceptibility class,host strain YMC14/01/R1722,R
same,antibiotic susceptibility test value,host strain YMC14/01/R1722,16
same,antibiotic susceptibility class,host strain YMC14/01/R1752,R
same,antibiotic susceptibility test value,host strain YMC14/01/R1752,16
same,antibiotic susceptibility class,host strain YMC14/01/R2429,R
same,antibiotic susceptibility test value,host strain YMC14/01/R2429,16
same,antibiotic susceptibility class,host strain YMC14/01/R2572,R
same,antibiotic susceptibility test value,host strain YMC14/01/R2572,16
same,antibiotic susceptibility class,host strain YMC14/01/R2855,R
same,antibiotic susceptibility test value,host strain YMC14/01/R2855,16
same,antibiotic susceptibility class,host strain YMC14/01/R2945,R
same,antibiotic susceptibility test value,host strain YMC14/01/R2945,16
same,antibiotic susceptibility class,host strain YMC14/01/R3007,R
same,antibiotic susceptibility test value,host strain YMC14/01/R3007,16
same,antibiotic susceptibility class,host strain YMC14/01/R3129,R
same,antibiotic susceptibility test value,host strain YMC14/01/R3129,16
same,antibiotic susceptibility class,host strain YMC14/01/R3317,R
same,antibiotic susceptibility test value,host strain YMC14/01/R3317,16
same,antibiotic susceptibility class,host strain YMC14/01/R3474,R
same,antibiotic susceptibility test value,host strain YMC14/01/R3474,16
same,antibiotic susceptibility class,host strain YMC14/01/R3574,R
same,antibiotic susceptibility test value,host strain YMC14/01/R3574,16
same,antibiotic susceptibility class,host strain YMC14/01/U313,R
same,antibiotic susceptibility test value,host strain YMC14/01/U313,16
same,antibiotic susceptibility class,host strain YMC14/01/U318,R
same,antibiotic susceptibility test value,host strain YMC14/01/U318,16
same,antibiotic susceptibility class,host strain YMC14/02/L18,R
same,antibiotic susceptibility test value,host strain YMC14/02/L18,16
same,antibiotic susceptibility class,host strain YMC14/02/P47,R
same,antibiotic susceptibility test value,host strain YMC14/02/P47,16
same,antibiotic susceptibility class,host strain YMC14/02/R1860,I
same,antibiotic susceptibility test value,host strain YMC14/02/R1860,8
same,antibiotic susceptibility class,host strain YMC14/02/R2417,R
same,antibiotic susceptibility test value,host strain YMC14/02/R2417,16
same,antibiotic susceptibility class,host strain YMC14/02/R2599,S
same,antibiotic susceptibility test value,host strain YMC14/02/R2599,2
same,antibiotic susceptibility class,host strain YMC14/02/R2668,R
same,antibiotic susceptibility test value,host strain YMC14/02/R2668,16
same,antibiotic susceptibility class,host strain YMC14/02/R2758,R
same,antibiotic susceptibility test value,host strain YMC14/02/R2758,16
same,antibiotic susceptibility class,host strain YMC14/02/R2781,R
same,antibiotic susceptibility test value,host strain YMC14/02/R2781,16
same,antibiotic susceptibility class,host strain YMC14/02/R3106,R
same,antibiotic susceptibility test value,host strain YMC14/02/R3106,16
same,antibiotic susceptibility class,host strain YMC14/02/R3419,R
same,antibiotic susceptibility test value,host strain YMC14/02/R3419,16
same,antibiotic susceptibility class,host strain YMC14/02/U1607,R
same,antibiotic susceptibility test value,host strain YMC14/02/U1607,16
same,antibiotic susceptibility class,host strain YMC14/03/L9,R
same,antibiotic susceptibility test value,host strain YMC14/03/L9,16
same,antibiotic susceptibility class,host strain YMC14/03/P471,S
same,antibiotic susceptibility test value,host strain YMC14/03/P471,2
same,antibiotic susceptibility class,host strain YMC14/03/R122,R
same,antibiotic susceptibility test value,host strain YMC14/03/R122,16
same,antibiotic susceptibility class,host strain YMC14/03/R217,R
same,antibiotic susceptibility test value,host strain YMC14/03/R217,16
same,antibiotic susceptibility class,host strain YMC14/03/R380,R
same,antibiotic susceptibility test value,host strain YMC14/03/R380,16
same,antibiotic susceptibility class,host strain YMC14/03/R618,S
same,antibiotic susceptibility test value,host strain YMC14/03/R618,2
same,antibiotic susceptibility class,host strain YMC14/03/R2144,R
same,antibiotic susceptibility test value,host strain YMC14/03/R2144,16
same,antibiotic susceptibility class,host strain YMC14/03/U4616,R
same,antibiotic susceptibility test value,host strain YMC14/03/U4616,16
same,antibiotic susceptibility class,host strain YMC14/04/R1078,S
same,antibiotic susceptibility test value,host strain YMC14/04/R1078,2
same,antibiotic susceptibility class,host strain YMC14/04/R1080,S
same,antibiotic susceptibility test value,host strain YMC14/04/R1080,2
same,antibiotic susceptibility S/I/R,host strain YMC14/06/R2359,R
same,antibiotic susceptibility value,host strain YMC14/06/R2359,16
same,susceptibility category (S/I/R),host strain YMC14/06/R2359,R
same,susceptibility test value (number given before S/I/R),host strain YMC14/06/R2359,16
same,antibiotic susceptibility S/I/R,host strain YMC14/08/R1169,R
same,antibiotic susceptibility value,host strain YMC14/08/R1169,16
same,susceptibility category (S/I/R),host strain YMC14/08/R1169,R
same,susceptibility test value (number given before S/I/R),host strain YMC14/08/R1169,16
same,antibiotic susceptibility S/I/R,host strain YMC14/08/T90,R
same,antibiotic susceptibility value,host strain YMC14/08/T90,16
same,susceptibility category (S/I/R),host strain YMC14/08/T90,R
same,susceptibility test value (number given before S/I/R),host strain YMC14/08/T90,16
same,antibiotic susceptibility S/I/R,host strain YMC15/02/R436,R
same,antibiotic susceptibility value,host strain YMC15/02/R436,16
same,susceptibility category (S/I/R),host strain YMC15/02/R436,R
same,susceptibility test value (number given before S/I/R),host strain YMC15/02/R436,16
same,antibiotic susceptibility S/I/R,host strain YMC15/02/T28,R
same,antibiotic susceptibility value,host strain YMC15/02/T28,16
same,susceptibility category (S/I/R),host strain YMC15/02/T28,R
same,susceptibility test value (number given before S/I/R),host strain YMC15/02/T28,16
same,antibiotic susceptibility S/I/R,host strain YMC15/03/R1604,R
same,antibiotic susceptibility value,host strain YMC15/03/R1604,16
same,susceptibility category (S/I/R),host strain YMC15/03/R1604,R
same,susceptibility test value (number given before S/I/R),host strain YMC15/03/R1604,16
same,antibiotic susceptibility S/I/R,host strain YMC15/09/R1869,R
same,antibiotic susceptibility value,host strain YMC15/09/R1869,16
same,susceptibility category (S/I/R),host strain YMC15/09/R1869,R
same,susceptibility test value (number given before S/I/R),host strain YMC15/09/R1869,16
same,antibiotic susceptibility S/I/R,host strain YMC16/01/P11,R
same,antibiotic susceptibility value,host strain YMC16/01/P11,16
same,susceptibility category (S/I/R),host strain YMC16/01/P11,R
same,susceptibility test value (number given before S/I/R),host strain YMC16/01/P11,16
same,antibiotic susceptibility S/I/R,host strain YMC16/01/R123,R
same,antibiotic susceptibility value,host strain YMC16/01/R123,16
same,susceptibility category (S/I/R),host strain YMC16/01/R123,R
same,susceptibility test value (number given before S/I/R),host strain YMC16/01/R123,16
same,antibiotic susceptibility S/I/R,host strain YMC16/01/R198,R
same,antibiotic susceptibility value,host strain YMC16/01/R198,16
same,susceptibility category (S/I/R),host strain YMC16/01/R198,R
same,susceptibility test value (number given before S/I/R),host strain YMC16/01/R198,16
same,antibiotic susceptibility S/I/R,host strain YMC16/01/R353,R
